Active and inactive are the calls of the source.
How the values were obtained:
[1] = A375 melanoma cell viability loss, dose response, counter-screen for MITF modulator project, CellTiter-Glo luminescence, dry powder, set 9 (AID 651591); format: functional, cell-based; details: A-375
[2] = MITF Measured in Cell-Based System Using Plate Reader - 2084-01_Inhibitor_Dose_DryPowder_Activity_Set6.; format: functional
[3] = A375 melanoma cell cytotoxicity, dose response, counter-screen for MITF inhibitor project, CellTiter-Glo luminescence, dry powder, set 2 (AID 624489); format: functional, cell-based; details: A-375;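 also: actives are compounds lowering A375 viability meaning general cytotoxicity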
[4] = SK-MEL-5 parental line viability, dose response, MITF inhibitor project, cell-based, CellTiter-Glo, dry powder, set 6 (AID 624429); format: functional
[5] = MITF Orthogonal Assay: MALME3 CTG Assay Measured in Cell-Based System Using Plate Reader - 2084-04_Inhibitor_Dose_DryPowder_Activity_Set6.; format: functional; details: MALME-3
[6] = MITF Measured in Cell-Based System Using Plate Reader - 2084-01_Inhibitor_Dose_DryPowder_Activity_Set7.; format: functional
[7] = A375 melanoma cell cytotoxicity, dose response, counter-screen for MITF inhibitor project, CellTiter-Glo luminescence, dry powder, set 6 (AID 624488); format: functional, cell-based; details: A-375
[8] = A375 melanoma cell cytotoxicity, dose response, counter-screen for MITF inhibitor project, CellTiter-Glo luminescence, dry powder, set 7 (AID 624490); format: functional, cell-based; details: A-375
[9] = biological target: T1, Microphthalmia-associated transcription factor (Homo sapiens, UniProt O75030); assay: TRPM1 promoter luciferase signal decrease, dose response, MITF inhibitor project, cell-based, SK-MEL-5, cherry-picked, set 3 (AID 493073); format: functional
T1 sequence (O75030 whole entry): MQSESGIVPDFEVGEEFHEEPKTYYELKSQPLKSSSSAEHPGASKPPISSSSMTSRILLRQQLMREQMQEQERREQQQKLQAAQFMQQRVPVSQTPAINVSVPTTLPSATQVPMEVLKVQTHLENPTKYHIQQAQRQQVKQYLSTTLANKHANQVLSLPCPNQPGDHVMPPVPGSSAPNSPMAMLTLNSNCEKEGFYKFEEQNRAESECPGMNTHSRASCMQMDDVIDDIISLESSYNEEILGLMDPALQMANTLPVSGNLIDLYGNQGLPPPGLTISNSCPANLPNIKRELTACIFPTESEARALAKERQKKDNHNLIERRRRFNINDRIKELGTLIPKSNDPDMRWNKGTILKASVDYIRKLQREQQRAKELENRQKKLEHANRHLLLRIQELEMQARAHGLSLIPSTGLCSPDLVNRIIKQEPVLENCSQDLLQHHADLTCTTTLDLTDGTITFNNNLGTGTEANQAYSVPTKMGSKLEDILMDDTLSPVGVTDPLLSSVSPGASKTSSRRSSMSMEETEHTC

[10] = SK-MEL-5 parental cell viability reduction, dose response, orthogonal assay for MITF inhibitor project, CellTiter-Glo luminescence, dry powder, set 8 (AID 651586); format: functional, cell-based
[11] = TRPM1 promoter luciferase reporter signal decrease, dose response, MITF inhibitor project, cell-based, SK-MEL-5, dry powder, set 9 (AID 651588); format: functional
[12] = MALME3 melanoma cell viability reduction, dose response, orthogonal assay for MITF inhibitor project, CellTiter-Glo luminescence, dry powder, set 5 (AID 651584); format: functional, cell-based; details: MALME-3
[13] = MITF Orthogonal Assay: SK-MEL-5 CTG Assay Measured in Cell-Based System Using Plate Reader - 2084-02_Inhibitor_Dose_DryPowder_Activity_Set5.; format: functional
[14] = A375 melanoma cell viability loss, dose response, counter-screen for MITF inhibitor project, CellTiter-Glo luminescence, dry powder, set 4 (AID 624364); format: functional, cell-based; details: A-375;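 also: A375 melanoma cells are MITF independent so this is a counter screen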
[15] = biological target: T2, Apoptotic protease-activating factor 1 (Homo sapiens, UniProt O14727); format: functional
T2 sequence (O14727 whole entry): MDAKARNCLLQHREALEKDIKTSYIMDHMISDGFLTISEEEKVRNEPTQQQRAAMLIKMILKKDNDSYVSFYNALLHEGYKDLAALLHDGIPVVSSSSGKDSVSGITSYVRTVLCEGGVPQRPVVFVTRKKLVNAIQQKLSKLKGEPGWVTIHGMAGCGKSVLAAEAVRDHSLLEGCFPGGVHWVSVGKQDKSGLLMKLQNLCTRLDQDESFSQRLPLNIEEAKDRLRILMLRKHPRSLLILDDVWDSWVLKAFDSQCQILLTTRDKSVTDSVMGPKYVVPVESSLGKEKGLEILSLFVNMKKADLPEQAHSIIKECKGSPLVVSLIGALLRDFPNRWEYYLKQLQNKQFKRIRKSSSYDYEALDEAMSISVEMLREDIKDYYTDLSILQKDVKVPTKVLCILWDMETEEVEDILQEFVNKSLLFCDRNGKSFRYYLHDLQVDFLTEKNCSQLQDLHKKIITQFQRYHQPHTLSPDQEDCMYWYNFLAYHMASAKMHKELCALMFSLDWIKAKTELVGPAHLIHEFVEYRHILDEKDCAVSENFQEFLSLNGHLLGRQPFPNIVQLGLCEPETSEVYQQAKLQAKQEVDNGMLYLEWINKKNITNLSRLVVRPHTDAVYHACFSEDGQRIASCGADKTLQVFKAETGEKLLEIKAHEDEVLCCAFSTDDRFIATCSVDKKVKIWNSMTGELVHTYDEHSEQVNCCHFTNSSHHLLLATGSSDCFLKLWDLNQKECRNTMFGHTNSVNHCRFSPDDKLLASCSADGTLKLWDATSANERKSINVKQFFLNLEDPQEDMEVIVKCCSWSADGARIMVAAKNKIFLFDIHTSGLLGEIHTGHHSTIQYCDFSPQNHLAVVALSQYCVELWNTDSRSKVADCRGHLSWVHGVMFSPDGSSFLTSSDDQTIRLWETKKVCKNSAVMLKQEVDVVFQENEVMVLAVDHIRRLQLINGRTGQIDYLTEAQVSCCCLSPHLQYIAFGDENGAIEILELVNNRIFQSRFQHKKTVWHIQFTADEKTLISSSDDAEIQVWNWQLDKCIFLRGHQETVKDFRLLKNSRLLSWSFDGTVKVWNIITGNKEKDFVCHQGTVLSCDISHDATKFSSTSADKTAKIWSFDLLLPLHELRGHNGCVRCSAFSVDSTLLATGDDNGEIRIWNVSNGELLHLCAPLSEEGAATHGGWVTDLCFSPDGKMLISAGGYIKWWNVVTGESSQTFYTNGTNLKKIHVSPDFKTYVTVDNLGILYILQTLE

[16] = A549 cell cytotoxicity, dose response, cytotoxicity control, plate reader, dry powder, set 7 (AID 743318); format: functional, cell-based
[17] = cytotoxicity toward NIH3T3 fibroblasts, dose response, counter-screen, cell-based, ATP luminescence, mouse fibroblasts (AID 2010); format: functional;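 also: cells exposed to compound for about 90 hours before reading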
[18] = inhibitors of intracellular T. cruzi replication, confirmation, NIH3T3 host cells, beta-gal luminescence (AID 2044); format: functional, cell-based;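 also: intracellular parasites grown in NIH/3T3 mouse fibroblasts as host cells; luminescent beta-galactosidase reporter signal from transgenic T. cruzi replicating inside host cells; inhibitors lower the luminescence signal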
[19] = biological target: Heat shock protein HSP 90-alpha (Homo sapiens, UniProt P07900); assay: Luminescence-based dose response biochemical high throughput screening assay for inhibitors of the Heat Shock Protein 90 (HSP90). [Related pubchem assays: 1831 (Summary AID.), 1846 (Confirmation screen.), 1789 (Primary screen.)]
INS1 = assay: beta cell apoptosis inhibitors, cytokine rescue, dose response, luminescence, retest (AID 449756); format: functional, cell-based; details: Rattus norvegicus;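 also: cell death triggered by IL-1 beta plus TNF-alpha plus IFN-gamma mixture; protective hits raise ATP signal compared with cytokine alone wells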
[20] = cytotoxicity in OVCAR4 cells, dose response, cytotoxicity control for PAX8 inhibitor project, cell-based, plate reader, dry powder, SA11 (AID 743150); format: functional; details: OVCAR-4
[21] = nonselective inhibitors of cellular cAMP signaling, dose response, counter-screen for MC4R biased antagonist project, cell-based, TR-FRET cAMP detection (AID 602305); format: functional;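 also: U2OS cells stimulated with forskolin near its EC80 as the cAMP inducer; potency is for inhibition of forskolin-stimulated cAMP signaling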
[22] = cytotoxicity in COV434 cells, dose response, cytotoxicity control for PAX8 inhibitor project, cell-based, plate reader, dry powder, SA7 (AID 743145); format: functional
Vero = assay: cells; format: functional; details: Chlorocebus sabaeus
[23] = cytotoxicity toward HT-29 cells – cell-based, CellTiter-Glo luminescence, IC50, dose response (AID 1117330); format: functional
[24] = HeLa 2N DNA content increase, dose response, cell-based, IC50 (AID 1117349); format: functional
[25] = cytotoxicity dependent on PAX8, dose response, cell-based, plate reader, dry powder (AID 743049); format: functional
[26] = half-maximal inhibitory concentration for glucagon-like peptide-1 release, STC-1 cell line, dose-response (AID 1117345); format: functional, cell-based
[27] = Glucagon-like peptide 1 release potency, NCI-H716 cell line, dose-response, half-maximal inhibitory concentration (AID 1117344); format: functional, cell-based
[28] = PAX5 activity inhibitors, dose response, selectivity assay for PAX8 inhibitor project, cell-based, plate reader, dry powder samples (AID 743047); format: functional;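 also: HEK293 cells carrying a Pax5 driven CD19 promoter luciferase reporter; potency of inhibitors that lower reporter luminescence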
[29] = cytotoxicity in OV-90 ovarian cancer cells, dose response, PAX8 inhibitor project, cell-based, plate reader, dry powder, SA8 (AID 743149); format: functional
[30] = RKO cell viability reduction, dose response, CellTiter-Glo luminescence (AID 1117322); format: functional
[31] = IGROV1 ovarian cancer cell cytotoxicity, dose response, PAX8 inhibitor project, plate reader, dry powder samples (AID 743043); format: functional, cell-based; details: IGROV-1
[32] = cytotoxicity in COV362 ovarian cancer cells, dose response, cytotoxicity control for PAX8 inhibitor project, cell-based, plate reader, dry powder, SA12 (AID 743144); format: functional
[33] = Dose-response inhibition of insulin secretion in a rat insulinoma line at 5 mM glucose (AID 1117331); format: functional, cell-based; details: INS-1E
[34] = cytotoxicity toward HCT116 cells – cell-based, CellTiter-Glo luminescence, IC50, dose response (AID 1117332); format: functional; details: HCT-116
[35] = PAX2 cell-based inhibition, dose response, selectivity assay for PAX8 inhibitor project, plate reader, dry powder samples (AID 743048); format: functional;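 also: HEK293 cells carrying a WT1 promoter luciferase reporter driven by expressed Pax2; potency is for inhibition of Pax2 driven reporter signal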
[36] = SNU-C1 cell viability reduction, dose response, CellTiter-Glo luminescence (AID 1117323); format: functional, cell-based
[37] = NIH:OVCAR-3 ovarian cancer cell cytotoxicity, dose response, PAX8 inhibitor project, plate reader, dry powder samples (AID 743044); format: functional, cell-based
[38] = CellTiter-Glo luminescent dose response of DLD-1 viability loss (AID 1117352); format: functional
[39] = HeLa 4N DNA content increase, dose response, cell-based, IC50 (AID 1117351); format: functional
[40] = Concentration-dependent survival of SW480 colon cancer line, luminescence detection with CellTiter-Glo, half-maximal inhibitory concentration (AID 1117338); format: functional
[41] = A2780 ovarian cancer cell cytotoxicity, dose response, cytotoxicity control, plate reader, dry powder samples (AID 743046); format: functional, cell-based
[42] = cytotoxicity toward Colo320 cells – cell-based, CellTiter-Glo luminescence, IC50, dose response (AID 1117334); format: functional; details: COLO 320

Compound: CCN1CCN(C2=C(NS(=O)(=O)c3ccc(Br)cc3)C(=O)c3ccccc3C2=O)CC1
- AC50 [1]: > 70 µM (inactive)
- AC50 [2]: 8.92 µM (active)
- AC50 [3]: > 70 µM (inactive)
- AC50 [4]: 46.2 µM (active)
- AC50 [5]: 20.9 µM (active)
- AC50 [6]: 4.5 µM (active)
- AC50 [7]: 55.1 µM (active)
- AC50 [8]: > 70 µM (inactive)
- AC50 [9]: 5.7 µM (active)
- AC50 [10]: 48.4 µM (active)
- AC50 [11]: 17.3 µM (active)
- AC50 [12]: 20.9 µM (active)
- AC50 [13]: 34.3 µM (active)
- AC50 [14]: > 70 µM (inactive)
- IC50 [15]: 24.3 µM (active)

Compound: Cc1ccc(C(C)C)c(OCCn2c(=S)[nH]c3cc(F)ccc32)c1
- AC50 [16]: 26.9 µM (active)

Compound: CC(=O)Nc1ccc(OS(=O)(=O)c2ccc([N+](=O)[O-])cc2)cc1
- EC50 ([17]; NIH3T3): > 60 µM (not active)
- EC50 [18]: 1.56 µM (active)
- IC50 [19]: 3.75 µM (active)

Compound: N=C(NCCCCCCNC(=N)NC(=N)Nc1ccc(Cl)cc1)NC(=N)Nc1ccc(Cl)cc1 [CHLORHEXIDINE]
- AC50 (INS1): 4.67 µM (active)
- AC50 [20]: 33.9 µM (active)
- IC50 [21]: 31.8 µM (inactive)
- AC50 [22]: 12.2 µM (active)
- CC50 (Vero): 8.43 µM (active)
- IC50 [23]: 3.79 µM (active)
- IC50 [24]: > 10 µM (inactive)
- AC50 [25]: 12.5 µM (active)
- IC50 [26]: 10.3 µM (inactive)
- IC50 [27]: 26.2 µM (inactive)
- AC50 [28]: 16.4 µM (active)
- AC50 [29]: 20 µM (active)
- EC50 ([17]; nih3t3): 6.74 µM (active)
- IC50 [30]: 4.58 µM (active)
- AC50 [31]: 15.6 µM (active)
- AC50 [32]: 21.6 µM (active)
- IC50 [33]: 25.2 µM (inactive)
- IC50 [34]: 4.39 µM (active)
- AC50 [35]: 13.6 µM (active)
- IC50 [36]: 0.439 µM (active)
- AC50 [37]: 13.8 µM (active)
- IC50 [38]: 2.8 µM (active)
- IC50 [39]: > 10 µM (inactive)
- EC50 [18]: 0.178 µM (active)
- IC50 [40]: 5.67 µM (inactive)
- AC50 [41]: 13.9 µM (active)
- IC50 [42]: 5.16 µM (inactive)

Source: ChEMBL document CHEMBL1201862, “PubChem BioAssay data set” (2004)
